The target in one data set is T1, TLR2 (Homo sapiens, UniProt O60603).
T1 construct: endogenous in cells; host or cells: THP-1 monocyte cells stimulated with PMA
The data set is described as follows: TLR2 activity in PMA-stimulated THP-1 monocyte cells, ELISA of cell lysate. The note with it: THP-1 cells. Type of data set: cell-based. The procedure:
THP-1 monocyte cells (1×10^5) were stimulated with 200nM of PMA for 48h and treated with different concentrations of test compounds. The TLR2 activity was measured after 24 h from the cell lysate using ELISA.
For orientation: An ELISA detects its analyte on a solid surface through an enzyme-linked reagent.

For data set [1], the system named is THP-1 (human monocytic) cells. Kind of data set: Cytokine response (IL-1β, TNF-α, IL-10) of THP-1 cells treated with compounds. Type of data set: cell-based. The settings on record: 100-200 µM. How it is done:
When THP-1 (human monocytic) cells were treated with 100-200 µM of compounds 8, 14, 17, 23, 29, and 32, they produced an increased IL-1β and TNF-α response, decreased anti-inflammatory cytokine IL-10 (FIG. 4).

Data set [2] has as its system human peripheral blood monocytes. Kind of data set: IL-10 production in human peripheral blood monocytes. Type of data set: cell-based. The note with it: after 48 h.
The test system of a further data set is TLR7/8. Kind of data set: TLR7/8 modulation: cytokine ELISA in hPBMC, alone or with TLR7/8 ligand CL075. Type of data set: cell-based, human. The text has this: Compound 8 modulates the TLR7/8 activities in a concentration dependent manner.
For the next data set, the target named is T2, TLR1/2 (Homo sapiens, UniProt O60603).
T2 construct: endogenous in cells; host or cells: hPBMC (human peripheral blood monocytes)
The data set is described as follows: TLR1/2 modulation: IL-6 ELISA in hPBMC with TLR1/2 ligand Pam3CSK4. Type of data set: cell-based. An excerpt: Compound 8 modulates the TLR1/2 activities in a concentration dependent manner.

The next data set has as its target T3, TLR6 (Homo sapiens, UniProt Q9Y2C9).
T3 construct: endogenous in cells; host or cells: hPBMC (human peripheral blood monocytes)
The data set is described as follows: TLR6 stimulation: IL-6 ELISA in hPBMC with TLR6 ligand Pam2CSK4. Format: cell-based. The settings on record: in combination with Pam2CSK4, hPBMC, 24h. The procedure: Compound 8 stimulates the TLR6 activities and upregulates the production of IL-6 cytokine in combination with TLR6 ligand Pam2CSK4 in hPBMC after 24h of treatment as detected by ELISA (FIG. 9).

For another data set, the target named is T4, TLR9 (Homo sapiens, UniProt Q9NR96).
T4 construct: endogenous in cells; host or cells: hPBMC (human peripheral blood monocytes)
T4 sequence (Q9NR96 26-1032): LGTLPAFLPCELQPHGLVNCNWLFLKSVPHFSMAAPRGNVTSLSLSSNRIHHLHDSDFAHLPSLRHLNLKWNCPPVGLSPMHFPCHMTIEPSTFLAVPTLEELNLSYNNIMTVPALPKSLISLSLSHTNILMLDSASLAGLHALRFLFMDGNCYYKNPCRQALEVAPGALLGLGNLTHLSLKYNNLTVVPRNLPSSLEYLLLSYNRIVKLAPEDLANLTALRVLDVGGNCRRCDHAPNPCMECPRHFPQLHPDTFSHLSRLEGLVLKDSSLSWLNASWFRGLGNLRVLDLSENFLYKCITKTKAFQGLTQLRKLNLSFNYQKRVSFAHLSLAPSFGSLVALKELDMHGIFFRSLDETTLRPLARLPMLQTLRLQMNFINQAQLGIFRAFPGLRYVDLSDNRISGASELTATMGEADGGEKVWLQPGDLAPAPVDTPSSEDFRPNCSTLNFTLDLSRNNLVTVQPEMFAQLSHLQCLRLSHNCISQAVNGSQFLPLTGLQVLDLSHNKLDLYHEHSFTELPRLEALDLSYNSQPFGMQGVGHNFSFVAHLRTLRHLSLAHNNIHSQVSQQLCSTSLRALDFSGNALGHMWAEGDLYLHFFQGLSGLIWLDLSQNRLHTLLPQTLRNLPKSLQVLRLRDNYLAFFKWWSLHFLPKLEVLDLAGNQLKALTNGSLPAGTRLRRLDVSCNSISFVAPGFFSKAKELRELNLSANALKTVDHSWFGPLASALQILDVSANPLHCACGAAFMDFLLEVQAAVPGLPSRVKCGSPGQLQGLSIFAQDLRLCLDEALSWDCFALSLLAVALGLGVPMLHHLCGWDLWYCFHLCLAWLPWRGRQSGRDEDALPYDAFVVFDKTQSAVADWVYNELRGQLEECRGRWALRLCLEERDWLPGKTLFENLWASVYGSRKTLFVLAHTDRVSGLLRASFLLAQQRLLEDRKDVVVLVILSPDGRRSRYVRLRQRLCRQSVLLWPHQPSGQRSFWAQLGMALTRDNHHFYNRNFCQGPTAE
Kind of data set: TLR9 antagonism: IFN-α ELISA in hPBMC with TLR9 ligand ODN2216. Type of data set: cell-based. The note with it: in combination with ODN2216, hPBMC, 48h. The procedure: Compound 8 antagonizes the TLR9 activities and downregulates the production of IFN-α in combination with TLR9 ligand ODN2216 in hPBMC after 48h of treatment as detected by ELISA (FIG. 11).

Another data set has as its system hPBMC. The data set is described as follows: Cytotoxicity in hPBMC, MTT cell proliferation kit. Type of data set: cell-based, human. The note with it: 0.1, 1.0, 10, 100 and 1000 µM, 24h. How it is done:
The cells were treated with compounds and incubated for 24h. Cell viability was assessed using MTT cell proliferation kit (Promega).

Another data set deals with HUVECs. Kind of data set: Cytotoxicity in HUVECs, MTT cell proliferation kit. Type of data set: cell-based, human. The settings on record: 100 µM, 24h. How it is done:
Selected TLR2/4 antagonist compounds 2, 6, 7, 8, 14, 17 and 32 were evaluated for cytotoxicity in HUVECs at 100 µM concentration. The cells were treated with compounds and incubated for 24h. Cell viability was assessed using MTT cell proliferation kit (Promega). All the compounds were not toxic to HUVECs (FIG. 15).

Data set [3] relates to hyperoxia-induced lung injury in mice. The data set is described as follows: Hyperoxia induced ALI model. Format: in vivo, C57BL/6 mice. How it is done: (§1) Male C57BL/6 mice (Jackson Laboratories,) 12-15 weeks old, 25 - 28 gms, housed up to 5 per cage were used.
Hyperoxia induced ALI model: The ARDS model consists of exposing adult mice in 100% oxygen for 48h followed by injecting with test compounds. Adult mice (N=5) were housed in plexi chamber with a constant and continuous supply of 100% oxygen for 48h. […] The mice were sacrificed after 48 h to harvest lung tissues and collect (BAL) fluid.

In data set [4] the test system is LPS induced lung injury in mice. Kind of data set: LPS-induced ALI model. Format: in vivo, C57BL/6 mice.
Description: as §1
The lungs were sectioned for histopathological assessment after H/E staining while the BAL fluid was used to detect total cell counts (neutrophils and macrophages) and measure protein (that exudes by leakage).

The next data set deals with TLR4 (Homo sapiens, UniProt O00206). Kind of data set: TLR4 modulation: IL-1β ELISA in hPBMC, alone or with TLR4 ligand LPS. Format: cell-based. Also on record: endogenous in cells. An excerpt: Compound 8 modulates the TLR4 activities in a concentration dependent manner.
TLR4, sequence (O00206 24-839): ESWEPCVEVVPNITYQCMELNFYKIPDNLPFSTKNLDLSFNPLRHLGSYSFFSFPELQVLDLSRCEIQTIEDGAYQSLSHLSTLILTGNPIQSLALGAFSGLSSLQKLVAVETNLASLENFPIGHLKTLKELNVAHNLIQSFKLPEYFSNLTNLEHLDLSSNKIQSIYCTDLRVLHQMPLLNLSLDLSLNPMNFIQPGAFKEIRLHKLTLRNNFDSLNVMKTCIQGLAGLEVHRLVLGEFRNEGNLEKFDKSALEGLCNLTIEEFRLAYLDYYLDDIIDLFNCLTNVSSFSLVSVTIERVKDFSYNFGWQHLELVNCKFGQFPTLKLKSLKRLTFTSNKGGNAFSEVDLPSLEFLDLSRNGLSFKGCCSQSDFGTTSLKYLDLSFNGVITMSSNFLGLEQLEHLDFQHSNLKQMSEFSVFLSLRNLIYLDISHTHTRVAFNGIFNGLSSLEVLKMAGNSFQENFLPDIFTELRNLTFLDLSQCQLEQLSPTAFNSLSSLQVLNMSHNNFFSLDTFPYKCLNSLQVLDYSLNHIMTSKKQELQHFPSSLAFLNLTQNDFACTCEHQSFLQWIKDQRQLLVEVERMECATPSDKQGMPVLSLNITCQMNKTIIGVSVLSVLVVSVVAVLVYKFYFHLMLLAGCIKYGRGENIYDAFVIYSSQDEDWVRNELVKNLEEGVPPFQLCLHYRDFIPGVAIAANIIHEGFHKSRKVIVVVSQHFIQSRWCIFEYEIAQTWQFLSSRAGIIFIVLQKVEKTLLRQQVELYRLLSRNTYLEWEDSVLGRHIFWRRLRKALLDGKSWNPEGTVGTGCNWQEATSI
TLR4, sequence (Q9Y6Y9 17-160 partner limits assumed): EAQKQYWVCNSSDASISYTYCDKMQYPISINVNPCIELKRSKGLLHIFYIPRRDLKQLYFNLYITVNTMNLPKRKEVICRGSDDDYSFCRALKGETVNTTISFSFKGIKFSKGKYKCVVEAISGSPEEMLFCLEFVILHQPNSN

T2 sequence (O60603 21-784): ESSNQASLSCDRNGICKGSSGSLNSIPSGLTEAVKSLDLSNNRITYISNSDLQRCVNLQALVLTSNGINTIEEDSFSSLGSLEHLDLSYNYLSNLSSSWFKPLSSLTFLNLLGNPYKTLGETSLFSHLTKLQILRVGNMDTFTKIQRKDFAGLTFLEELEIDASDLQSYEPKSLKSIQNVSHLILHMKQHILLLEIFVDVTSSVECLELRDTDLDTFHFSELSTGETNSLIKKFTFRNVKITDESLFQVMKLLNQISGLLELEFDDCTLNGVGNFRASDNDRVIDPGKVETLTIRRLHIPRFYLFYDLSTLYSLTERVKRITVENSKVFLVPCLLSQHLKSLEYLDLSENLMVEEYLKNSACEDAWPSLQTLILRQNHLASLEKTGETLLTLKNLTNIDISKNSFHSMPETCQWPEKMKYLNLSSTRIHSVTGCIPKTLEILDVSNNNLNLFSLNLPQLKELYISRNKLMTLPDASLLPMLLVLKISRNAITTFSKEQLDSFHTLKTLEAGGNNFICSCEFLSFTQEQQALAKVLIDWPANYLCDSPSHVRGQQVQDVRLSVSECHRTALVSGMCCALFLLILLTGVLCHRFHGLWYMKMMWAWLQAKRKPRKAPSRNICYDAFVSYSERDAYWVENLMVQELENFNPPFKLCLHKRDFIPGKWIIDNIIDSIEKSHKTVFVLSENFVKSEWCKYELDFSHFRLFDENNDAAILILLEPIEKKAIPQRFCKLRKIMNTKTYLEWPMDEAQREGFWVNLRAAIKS
T1 sequence (O60603 21-784): as above
T3 sequence (Q9Y2C9 32-796): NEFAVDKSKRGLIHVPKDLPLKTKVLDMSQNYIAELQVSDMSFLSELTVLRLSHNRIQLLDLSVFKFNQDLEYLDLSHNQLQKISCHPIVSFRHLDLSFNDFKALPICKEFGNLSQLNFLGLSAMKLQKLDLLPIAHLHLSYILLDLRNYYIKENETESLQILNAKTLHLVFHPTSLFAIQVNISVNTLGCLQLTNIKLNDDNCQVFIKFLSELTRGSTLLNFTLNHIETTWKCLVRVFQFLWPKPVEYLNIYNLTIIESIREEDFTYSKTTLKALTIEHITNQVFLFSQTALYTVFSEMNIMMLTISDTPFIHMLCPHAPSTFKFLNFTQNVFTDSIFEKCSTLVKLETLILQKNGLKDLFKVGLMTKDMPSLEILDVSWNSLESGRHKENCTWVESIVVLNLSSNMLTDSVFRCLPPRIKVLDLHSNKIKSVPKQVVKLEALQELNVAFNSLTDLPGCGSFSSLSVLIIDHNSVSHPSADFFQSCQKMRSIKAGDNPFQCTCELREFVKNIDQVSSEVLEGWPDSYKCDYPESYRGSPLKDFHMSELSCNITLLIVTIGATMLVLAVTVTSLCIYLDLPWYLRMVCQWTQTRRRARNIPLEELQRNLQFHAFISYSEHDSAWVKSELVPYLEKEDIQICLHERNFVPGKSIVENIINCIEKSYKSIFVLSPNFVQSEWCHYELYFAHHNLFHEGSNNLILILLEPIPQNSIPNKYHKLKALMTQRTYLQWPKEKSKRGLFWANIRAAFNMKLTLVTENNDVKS
T3 sequence (O60603 21-784 partner): as the sequence (O60603 21-784) above

As to `CC(=O)N[C@H]1[C@H](Oc2ccc([N+](=O)[O-])cc2)O[C@H](CO)[C@@H](O)[C@@H]1O` [Compound 8, p-Nitrophenyl 2-acetamido-2-deoxy-β-D-glucopyranoside], the figures for the “% inhibition over control TLR2” value at TLR2 (Concentration 1-10 µM) and at TLR2 (Concentration 75-100 µM) were “+ (+ means that the % of inhibition or activation is in the range of 15-25%)” and “++ (++ means that the % of inhibition or activation is in the range of 25-75%)”, respectively. In addition, the IL-1β response result in [1] is listed as “increased”. Besides, in data set [1], the TNF-α response entry was “increased”. The “anti-inflammatory cytokine IL-10” value in data set [1] was “decreased”. For the same molecule, the IL-10 production result in [2] (0.1-1.0 µM) is listed as “increase”; in data set [2] (10-100 µM), “decrease”. The IL-10 protein level entry in the data set on TLR7/8 (0.1 µM to <1 µM, alone or in combination with CL075, hPBMC, 24h, ELISA) is recorded as “downregulate”. Moreover, the “production of IL-1β” value was “significantly stimulated” in the data set with TLR7/8 (1.0 µM, alone and in combination with CL075, hPBMC); “significantly stimulated” on TLR4 (1.0 µM, alone and in combination with LPS). For the same molecule, the IL-6 protein level result on TLR1/2 (0.1 µM to <1 µM, in combination with Pam3CSK4, hPBMC, 24h, ELISA) is on record as “downregulate”. At TLR1/2 (1.0, 10 and 100 µM, in combination with CL075, hPBMC), the “production of IL-6” value is reported as “significantly stimulated”. The “production of IL-6 cytokine” value on TLR6 is given as “upregulates”. Moreover, on TLR9, the “production of IFN-α” value is “downregulates”. In the data set with hPBMC, the “cytotoxicity in hPBMC (cell viability)” value is reported as “not toxic”. In addition, the “cytotoxicity in HUVECs (cell viability)” value in the data set with HUVECs is “not toxic”. In addition, the “protection against hyperoxia induced lung injury” value in [3] (IP 10 mg/kg, two doses, 100% oxygen 48h) is reported as “significant protection”. Besides, the hyperoxia-induced lung inflammation result in [3] (IP injection) is listed as “ameliorated”. For the same molecule, the “protection against LPS induced lung injury” value in [4] (IP 10mg/kg at 4h and 12h post LPS, sacrifice after 24 h) was “significant protection”. In addition, in data set [4] (IP injection), the LPS-induced lung inflammation result is “ameliorated”. Further, the IL-1β protein level result at TLR4 (0.1 µM to <1 µM, alone or in combination with LPS, 24h, ELISA) is “downregulate”.
